In brackets after ≈: the same amount, converted by molar mass. Where two headings read alike, the source gives them in different places.
Assays:
E. coli 3190Y = assay: Minimum inhibitory concentration, agar dilution; type: cell-based; conditions: Escherichia coli, read-out: Minimum Inhibitory Concentration
Procedure: (§1) The minimum inhibitory concentration was determined by diluting the test compounds according to 2-fold dilution, suspending them in M uller-Hinton agar medium, inoculating the test strains having 10^7 CFU per 1 ml into the medium and then culturing the medium at 37° C. for 20 hours.

E. cloacae 1194E = assay: Minimum inhibitory concentration, agar dilution; type: cell-based; conditions: Enterobacter cloacae, read-out: Minimum Inhibitory Concentration
Procedure: as §1

S. aureus 6538pA = assay: Minimum inhibitory concentration, agar dilution; type: cell-based; conditions: Staphylococcus aureus, Muller-Hinton agar, 10^7 CFU per ml, 37° C., 20 hours
Procedure: as §1

K. aerogenes 1976E = assay: Minimum inhibitory concentration, agar dilution; type: cell-based; conditions: Klebsiella aerogenes, Muller-Hinton agar, 10^7 CFU per ml, 37° C., 20 hours
Procedure: as §1

S. faecalis 29212A = assay: Minimum inhibitory concentration, agar dilution; type: cell-based; conditions: Enterococcus faecalis, 29212A, 20 h, read-out: Minimum Inhibitory Concentration
Procedure: as §1

P. aeruginosa 10145 = assay: Minimum inhibitory concentration, agar dilution; type: cell-based; conditions: Pseudomonas aeruginosa, Muller-Hinton agar, 10^7 CFU per ml, 37° C., 20 hours
Procedure: as §1

E. coli TEM9 2639E = assay: Minimum inhibitory concentration, agar dilution; type: cell-based; conditions: Escherichia coli, TEM92639E, 20 h, read-out: Minimum Inhibitory Concentration
Procedure: as §1

P. aeruginosa 6065Y = assay: Minimum inhibitory concentration, agar dilution; type: cell-based; conditions: Pseudomonas aeruginosa, 20 h, read-out: Minimum Inhibitory Concentration
Procedure: as §1

S. typhimurium 14028A = assay: Minimum inhibitory concentration, agar dilution; type: cell-based; conditions: Salmonella enterica, TYPHIMURIUM, 20 h, read-out: Minimum Inhibitory Concentration
Procedure: as §1

E. coli 10536 = assay: Minimum inhibitory concentration, agar dilution; type: cell-based; conditions: read-out: Minimum Inhibitory Concentration
Procedure: as §1

S. marcescens 1826E = assay: Minimum inhibitory concentration, agar dilution; type: cell-based; conditions: Serratia marcescens, Muller-Hinton agar, 10^7 CFU per ml, 37° C., 20 hours
Procedure: as §1

E. coli TEM5 3739E = assay: Minimum inhibitory concentration, agar dilution; type: cell-based; conditions: Escherichia coli, TEM53739E, 20 h, read-out: Minimum Inhibitory Concentration
Procedure: as §1

S. aureus giorigio = assay: Minimum inhibitory concentration, agar dilution; type: cell-based; conditions: Staphylococcus aureus, Muller-Hinton agar, 10^7 CFU per ml, 37° C., 20 hours
Procedure: as §1

A. calcoaceticus 15473A = assay: Minimum inhibitory concentration, agar dilution; type: cell-based; conditions: Acinetobacter calcoaceticus, Muller-Hinton agar, 10^7 CFU per ml, 37° C., 20 hours
Procedure: as §1

E. coli TEM1 1193E = assay: Minimum inhibitory concentration, agar dilution; type: cell-based; conditions: Escherichia coli, TEM11193E, 20 h, read-out: Minimum Inhibitory Concentration
Procedure: as §1

P. aeruginosa 1912E = assay: Minimum inhibitory concentration, agar dilution; type: cell-based; conditions: Pseudomonas aeruginosa, 20 h, read-out: Minimum Inhibitory Concentration
Procedure: as §1

[1] = Pharmacokinetic properties in SD rats; type: in vivo; conditions: rat; SD rats (male), intravenous, 20 mg/kg; blood, biological assay (agar well method)
Procedure: The pharmacokinetic properties of the compound of the present invention were determined using SD rats (.male.) weighing 220 to 340 g. Specifically, the test samples were administered in intravenous route in an amount of 20 mg/kg to 2 to 5 test animals. Blood was taken from femoral vein every hours after the administration and then subjected to a biological assay using agar well method to measure the blood concentration. The results of pharmacokinetic properties calculated from the above blood concentration are described in the following Table 3.

[2] = Escherichia coli, E. coli 10536, Muller-Hinton agar, 10^7 CFU per ml, 37° C., 20 hours
[3] = E. cloacae 1194E, Muller-Hinton agar, 10^7 CFU per ml, 37° C., 20 hours

Row | SMILES | MIC (E. coli 3190Y; 3190Y, 20 h) | MIC (E. cloacae 1194E; 1194E, 20 h) | MIC (S. aureus 6538pA) | MIC (K. aerogenes 1976E) | MIC (S. faecalis 29212A) | MIC (P. aeruginosa 10145) | MIC (E. coli TEM9 2639E) | MIC (P. aeruginosa 6065Y) | MIC (S. typhimurium 14028A) | MIC (E. coli 10536; Escherichia coli, 10536, 20 h) | MIC (S. marcescens 1826E) | MIC (E. coli TEM5 3739E) | MIC (S. aureus giorigio) | MIC (A. calcoaceticus 15473A) | MIC (E. coli TEM1 1193E) | MIC (P. aeruginosa 1912E) | MIC (E. coli 10536; [2]) | AUC [1] | half-life [1] | MIC (E. cloacae 1194E; [3]) | further results
1 | CC(C)(O/N=C(\C(=O)N[C@@H]1C(=O)N2C(C(=O)[O-])=C(C[n+]3ccccc3)CS[C@H]12)c1csc(N)n1)C(=O)O [CAZ, Ceftazidime, reference compound] | 0.063 µg/mL (≈ 0.115 µM) | 128 µg/mL (≈ 234 µM) | 16 µg/mL (≈ 29.3 µM) | 0.25 µg/mL (≈ 0.457 µM) | > 128 µg/mL | 2 µg/mL (≈ 3.66 µM) | > 128 µg/mL | 32 µg/mL (≈ 58.5 µM) | 0.25 µg/mL (≈ 0.457 µM) | 0.13 µg/mL (≈ 0.238 µM) | 0.25 µg/mL (≈ 0.457 µM) | 8 µg/mL (≈ 14.6 µM) | 4 µg/mL (≈ 7.32 µM) | 2 µg/mL (≈ 3.66 µM) | 0.25 µg/mL (≈ 0.457 µM) | 1 µg/mL (≈ 1.83 µM) |  |  |  |  | 
2 | Cc1c(N)nc(SCC2=C(C(=O)[O-])N3C(=O)C(NC(=O)/C(=N\OC(C(=O)O)c4ccc(O)c(O)c4)c4csc(N)n4)[C@H]3SC2)[n+](N)c1N (stereo partly drawn) [I-1(a), 7-[(Z)-2-(2-aminothiazol-4-yl)-2-(α-carboxy-3,4-dihydroxybenzyloxyimino)acetamido]-3-(5-methyl-1,4,6-triaminopyrimidinium-2-yl)thiomethyl-3-cephem-4-carboxylate] | 0.063 µg/mL (≈ 0.0877 µM) | 1 µg/mL (≈ 1.39 µM) | 0.25 µg/mL (≈ 0.348 µM) | 0.13 µg/mL (≈ 0.181 µM) | 16 µg/mL (≈ 22.3 µM) | 0.25 µg/mL (≈ 0.348 µM) | 1 µg/mL (≈ 1.39 µM) | 0.5 µg/mL (≈ 0.696 µM) | 0.063 µg/mL (≈ 0.0877 µM) |  | 0.25 µg/mL (≈ 0.348 µM) | 0.25 µg/mL (≈ 0.348 µM) | 0.13 µg/mL (≈ 0.181 µM) | 0.5 µg/mL (≈ 0.696 µM) | 0.063 µg/mL (≈ 0.0877 µM) | 0.5 µg/mL (≈ 0.696 µM) | 0.013 µg/mL (≈ 0.0181 µM) | 52500 ng·h/mL | 40 min |  | 
3 | C[n+]1c(N)cc(N)nc1SCC1=C(C(=O)[O-])N2C(=O)C(NC(=O)C(=NOC(C(=O)O)c3ccc(O)c(O)c3)c3csc(N)n3)C2SC1 (stereo not drawn) [I-3(a), 7-[(Z)-2-(2-aminothiazol-4-yl)-2-(α-carboxy-3,4-dihydroxybenzyloximio)acetamido]-3-(4,6-diamino-1-methylpyrimidinium-2-yl)thiomethyl-3-cephem-4-carboxylate] |  |  | 0.5 µg/mL (≈ 0.71 µM) | 0.25 µg/mL (≈ 0.355 µM) | 32 µg/mL (≈ 45.5 µM) | 0.5 µg/mL (≈ 0.71 µM) | 4 µg/mL (≈ 5.68 µM) | 1 µg/mL (≈ 1.42 µM) | 0.063 µg/mL (≈ 0.0895 µM) | 0.063 µg/mL (≈ 0.0895 µM) | 0.5 µg/mL (≈ 0.71 µM) | 0.5 µg/mL (≈ 0.71 µM) | 0.5 µg/mL (≈ 0.71 µM) | 0.5 µg/mL (≈ 0.71 µM) | 0.063 µg/mL (≈ 0.0895 µM) | 0.5 µg/mL (≈ 0.71 µM) |  | 55400 ng·h/mL | 53 min | 8 µg/mL (≈ 11.4 µM) | MIC (E. coli 3190Y; E. coli 3190Y, Muller-Hinton agar, 10^7 CFU per ml, 37° C., 20 hours): 0.031 µg/mL (≈ 0.0441 µM)
4 | C[n+]1cc(CS(=O)(=O)O)c(N)nc1SCC1=C(C(=O)[O-])N2C(=O)C(NC(=O)/C(=N\OC(C(=O)O)c3ccc(O)c(O)c3)c3csc(N)n3)[C@H]2SC1 (stereo partly drawn) [I-7(a), 7-[(Z)-2-(2-aminothiazol-4-yl)-2-(α-carboxy-3,4-dihydroxybenzyloxyimino)acetamido]-3-(1-methyl-4-amino-5-sulfomethylpyrimidinium-2-yl)thiomethyl-3-cephem-4-carboxylate] | 0.063 µg/mL (≈ 0.0805 µM) |  | 2 µg/mL (≈ 2.55 µM) | 0.5 µg/mL (≈ 0.639 µM) | 32 µg/mL (≈ 40.9 µM) | 0.25 µg/mL (≈ 0.319 µM) | 4 µg/mL (≈ 5.11 µM) |  | 0.5 µg/mL (≈ 0.639 µM) |  | 1 µg/mL (≈ 1.28 µM) | 0.5 µg/mL (≈ 0.639 µM) | 2 µg/mL (≈ 2.55 µM) | 0.5 µg/mL (≈ 0.639 µM) | 0.13 µg/mL (≈ 0.166 µM) |  | 0.031 µg/mL (≈ 0.0396 µM) | 53100 ng·h/mL | 48 min | 8 µg/mL (≈ 10.2 µM) | 

Reference: patent US5605895A, “Cephalosporin antibiotics and processes for preparation thereof” (Lucky, Ltd., priority 1993, dated 1997)
